From patent US20160074409A1, “Treatment of Skeletal-Related Disorders” (priority 2013, published 2016)

Test system: MDA-MB-231 breast carcinoma cells
Assay: Bone density in bone metastasis model (femoral and tibial X-ray densitometry)
Type: in vivo, Nude (rnu/rnu) female rats
Conditions: metastatic bone cancer model, MDA-MB-231 cells injected into tibia; Group G5: 90 mg/kg BID PO, N=6; 6 weeks; FIG. 1
Description: Nude (rnu/rnu) female rats were obtained from Charles River (Wilmington, Mass.). The rats were pair-housed in polycarbonate micro-isolator cages lined with autoclaved bedding. Autoclaved reverse osmosis (RO) water and autoclaved standard rat chow were provided ad libitum. Body weights were recorded weekly throughout the course of the studies. Animals were maintained for 6 weeks and euthanized by carbon dioxide inhalation at the end of the experiment. The animals were randomized to study groups by body weight as follows: G1: vehicle BID PO (N=6), G2: 0.04 mg/kg zoledronate QWK IV (N=6), G5: 90 mg/kg Compound of Formula IV BID PO (N=6), and G6: No implantation (N=3).
MDA-MB-231 breast carcinoma cells were propagated by standard tissue culture methods in RPMI media containing 10% fetal bovine serum. Exponentially growing cells were trypsinized and resuspended in phosphate-buffered saline at a concentration of 2.5×10^7 cells/mi. Rats were maintained under isoflurane anesthesia during the tumor injection procedure. […]
Radiographs were taken with rats under general anaesthesia. […] Radiographs were scanned and analysed. […]
Femoral and tibial X-ray densitometry was performed. In brief, bones were X-rayed, the film was scanned and the electronic image then analysed by a real-colour image analysis system. Pixel density was then determined and used as a measure of disease progression.

## CC#CC(=O)N1CCCC1c1nc(-c2ccc(C(=O)Nc3ccccn3)cc2)c2c(N)ncnn12 (stereo not shown) [Compound of Formula IV]
  bone density (femoral and tibial X-ray densitometry, pixel density): inhibition of the decrease in bone density
